Assay results: ChEMBL document CHEMBL1201862, “PubChem BioAssay data set” (2004)
The source made the active and inactive calls.

Key:
CHO-K1 = experiment: Counterscreen for antagonists of the orexin 1 receptor (OX1R; HCRTR1): Homogeneous time resolved fluorescence (HTRF)-based cell-based dose response assay to identify antagonists of the parental CHO-K1 cell line. [Related pubchem assays (depositor defined):AID434989, AID435008, AID463079, AID485270, AID492963, AID492964, AID492965, AID493232, AID504699, AID504701]; format: functional; settings: Cricetulus griseus;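 note: potency for inhibition of ATP-stimulated IP1 production as antagonists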
[1] = Counterscreen for antagonists of the orexin 1 receptor (OX1R; HCRTR1): Fluorescence-based cell-based high throughput dose response assay to identify antagonists of the parental CHO cell line. [Related pubchem assays (depositor defined):AID434989, AID435008, AID463079, AID485270, AID492963, AID492964, AID492965, AID493232, AID504699, AID504701]; format: functional
[2] = biological target: T1, Orexin/Hypocretin receptor type 1 (Homo sapiens, UniProt O43613); experiment: Homogeneous Time Resolved Fluorescence (HTRF)-based cell-based high throughput dose response assay for antagonists of the orexin 1 receptor (OX1R; HCRTR1). [Related pubchem assays (depositor defined):AID434989, AID435008, AID463079, AID485270, AID492963, AID492964, AID492965, AID493232, AID504717, AID504718]; format: functional
T1 sequence (O43613 whole entry): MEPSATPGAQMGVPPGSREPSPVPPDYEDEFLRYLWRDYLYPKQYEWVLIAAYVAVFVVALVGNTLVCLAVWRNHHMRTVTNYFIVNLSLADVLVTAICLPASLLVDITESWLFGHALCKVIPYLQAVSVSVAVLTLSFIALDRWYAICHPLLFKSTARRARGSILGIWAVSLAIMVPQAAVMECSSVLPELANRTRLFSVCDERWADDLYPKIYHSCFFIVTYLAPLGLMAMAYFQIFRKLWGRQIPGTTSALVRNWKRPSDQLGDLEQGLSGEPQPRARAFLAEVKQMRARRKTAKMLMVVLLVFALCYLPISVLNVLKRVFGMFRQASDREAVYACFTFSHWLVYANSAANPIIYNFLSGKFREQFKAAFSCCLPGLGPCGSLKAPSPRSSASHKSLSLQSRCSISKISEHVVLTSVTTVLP

[3] = biological target: T1, Orexin/Hypocretin receptor type 1; experiment: Fluorescence-based cell-based high throughput dose response assay for antagonists of the orexin 1 receptor (OX1R; HCRTR1). [Related pubchem assays (depositor defined):AID434989, AID435008, AID463079, AID485270, AID492963, AID492964, AID492965, AID493232, AID504717, AID504718]; format: functional
Orexin receptor type 2 [4] = biological target: T2, Orexin receptor type 2 (Homo sapiens, UniProt O43614); experiment: Counterscreen assay for antagonists of the orexin 1 receptor (OX1R; HCRTR1): Fluorescence-based cell-based dose response assay for antagonists of the orexin 2 receptor (OX2R; HCRTR2), run by assay provider.; format: functional
T2 sequence (O43614 whole entry): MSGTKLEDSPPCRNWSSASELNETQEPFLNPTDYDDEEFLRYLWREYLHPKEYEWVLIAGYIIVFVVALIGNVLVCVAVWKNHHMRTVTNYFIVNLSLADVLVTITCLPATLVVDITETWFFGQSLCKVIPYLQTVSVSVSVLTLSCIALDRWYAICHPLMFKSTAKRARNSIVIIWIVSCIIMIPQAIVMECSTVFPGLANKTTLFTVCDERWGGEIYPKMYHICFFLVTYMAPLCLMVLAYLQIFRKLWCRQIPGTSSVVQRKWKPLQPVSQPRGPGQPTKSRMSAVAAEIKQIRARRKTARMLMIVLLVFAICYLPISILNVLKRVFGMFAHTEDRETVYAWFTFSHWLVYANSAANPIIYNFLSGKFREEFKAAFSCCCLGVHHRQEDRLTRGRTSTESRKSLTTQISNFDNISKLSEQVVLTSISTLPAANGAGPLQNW

Orexin receptor type 2 [5] = biological target: T2, Orexin receptor type 2; experiment: Counterscreen assay for antagonists of the orexin 1 receptor (OX1R; HCRTR1): Homogeneous Time Resolved Fluorescence (HTRF)-based cell-based dose response assay for antagonists of the orexin 2 receptor (OX2R; HCRTR2), run by assay provider.; format: functional
Fatty acid synthase [6] = biological target: T3, Fatty acid synthase (Homo sapiens, UniProt P49327); experiment: FAS thioesterase domain inhibitors, dose response, biochemical, endpoint fluorescence intensity, uHTS hits (AID 624327); format: functional;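 note: fluorescence from hydrolysis of an O-methyl fluorescein acyl ester substrate by the enzyme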
Fatty acid synthase [7] = biological target: T3, Fatty acid synthase; experiment: FAS thioesterase domain inhibitors, dose response, biochemical, kinetic fluorescence intensity (AID 624326); format: functional;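 note: rate of fluorescence rise from hydrolysis of a fluorogenic O-methyl fluorescein ester substrate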
fMet-Leu-Phe receptor = biological target: T4, fMet-Leu-Phe receptor (Homo sapiens, UniProt P21462); experiment: FPR ligands, dose response (AID 519); format: functional
T4 sequence (P21462 whole entry): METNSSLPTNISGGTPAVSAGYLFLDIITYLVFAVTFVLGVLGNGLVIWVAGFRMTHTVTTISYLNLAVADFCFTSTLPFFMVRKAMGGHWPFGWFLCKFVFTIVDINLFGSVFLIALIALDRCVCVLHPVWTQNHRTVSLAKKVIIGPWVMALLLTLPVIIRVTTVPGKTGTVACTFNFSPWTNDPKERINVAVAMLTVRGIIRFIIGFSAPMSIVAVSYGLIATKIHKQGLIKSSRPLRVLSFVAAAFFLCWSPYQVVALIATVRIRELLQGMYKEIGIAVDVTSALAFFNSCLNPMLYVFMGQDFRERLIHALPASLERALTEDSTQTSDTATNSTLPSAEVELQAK

[8] = HEp-2 cell cytotoxicity, dose response, cytotoxicity control for RSV inhibitor project, HTS (AID 2410); format: functional; settings: human respiratory syncytial virus
[9] = biological target: Heat shock protein HSP 90-alpha (Homo sapiens, UniProt P07900); format: functional, organism-based
[10] = biological target: Dual specificity tyrosine-phosphorylation-regulated kinase 1A (Rattus norvegicus, UniProt Q63470); format: biochemical, Homo sapiens
Paired box protein Pax-8 = Paired box protein Pax-8 (Homo sapiens, UniProt Q06710); experiment: inhibitors of PAX8-driven TPO luciferase reporter, dose response, RMG-I cells, cherry-pick (AID 687027); format: functional, cell-based;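 note: luciferase reporter driven by Pax8 target thyroperoxidase promoter measured by SteadyGlo luminescence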
[11] = biological target: T5, Histone-lysine N-methyltransferase NSD2 (Homo sapiens, UniProt O96028); format: biochemical
T5 sequence (O96028 whole entry): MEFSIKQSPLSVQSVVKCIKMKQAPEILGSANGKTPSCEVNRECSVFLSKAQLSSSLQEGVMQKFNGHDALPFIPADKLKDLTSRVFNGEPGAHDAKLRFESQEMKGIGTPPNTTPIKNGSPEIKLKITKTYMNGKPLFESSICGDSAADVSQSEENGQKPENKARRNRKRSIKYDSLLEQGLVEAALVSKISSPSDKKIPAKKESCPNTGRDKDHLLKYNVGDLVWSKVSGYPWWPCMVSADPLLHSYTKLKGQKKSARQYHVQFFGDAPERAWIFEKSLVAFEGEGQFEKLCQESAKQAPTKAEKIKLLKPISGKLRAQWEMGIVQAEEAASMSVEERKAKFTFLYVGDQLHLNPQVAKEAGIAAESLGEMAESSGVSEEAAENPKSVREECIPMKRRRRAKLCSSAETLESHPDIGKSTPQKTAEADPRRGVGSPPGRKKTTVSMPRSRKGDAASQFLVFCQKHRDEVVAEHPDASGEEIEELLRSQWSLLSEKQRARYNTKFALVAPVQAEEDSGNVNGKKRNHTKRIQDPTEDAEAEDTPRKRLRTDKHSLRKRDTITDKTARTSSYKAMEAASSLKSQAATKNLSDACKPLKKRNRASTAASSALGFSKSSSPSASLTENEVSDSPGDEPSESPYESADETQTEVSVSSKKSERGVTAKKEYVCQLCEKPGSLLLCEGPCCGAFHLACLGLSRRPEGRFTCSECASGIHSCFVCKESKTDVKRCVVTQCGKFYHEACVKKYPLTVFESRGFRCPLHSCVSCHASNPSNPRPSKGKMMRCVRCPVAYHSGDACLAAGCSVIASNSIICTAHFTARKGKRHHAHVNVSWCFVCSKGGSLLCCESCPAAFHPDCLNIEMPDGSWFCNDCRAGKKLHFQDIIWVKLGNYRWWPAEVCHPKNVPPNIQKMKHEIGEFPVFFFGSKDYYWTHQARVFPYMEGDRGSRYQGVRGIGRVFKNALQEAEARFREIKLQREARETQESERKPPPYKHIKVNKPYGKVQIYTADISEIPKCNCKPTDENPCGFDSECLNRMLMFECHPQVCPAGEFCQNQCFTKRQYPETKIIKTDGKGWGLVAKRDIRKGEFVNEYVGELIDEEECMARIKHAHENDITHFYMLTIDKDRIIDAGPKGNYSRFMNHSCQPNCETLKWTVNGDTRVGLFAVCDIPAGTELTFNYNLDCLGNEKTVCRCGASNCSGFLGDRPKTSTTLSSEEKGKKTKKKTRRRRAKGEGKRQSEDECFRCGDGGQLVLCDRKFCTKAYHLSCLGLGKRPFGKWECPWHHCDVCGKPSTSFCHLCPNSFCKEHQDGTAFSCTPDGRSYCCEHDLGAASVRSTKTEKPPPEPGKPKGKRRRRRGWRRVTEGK

[12] = biological target: T6, Tyrosyl-DNA phosphodiesterase 2 (Homo sapiens, UniProt O95551); experiment: human TDP2 enzyme inhibitors, dose response, biochemical, epi absorbance, IC50 (AID 743297)
T6 sequence (O95551 whole entry): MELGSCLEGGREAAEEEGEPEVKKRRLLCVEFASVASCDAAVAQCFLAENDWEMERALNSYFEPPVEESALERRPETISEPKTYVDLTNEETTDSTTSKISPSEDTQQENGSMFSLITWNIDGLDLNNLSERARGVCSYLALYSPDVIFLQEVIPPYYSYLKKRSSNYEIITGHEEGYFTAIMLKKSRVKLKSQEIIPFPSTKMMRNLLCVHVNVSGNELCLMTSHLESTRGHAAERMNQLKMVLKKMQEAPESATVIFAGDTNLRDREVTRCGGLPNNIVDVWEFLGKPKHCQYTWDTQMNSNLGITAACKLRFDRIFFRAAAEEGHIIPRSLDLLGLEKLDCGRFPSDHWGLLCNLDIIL

Kallikrein-7 = Kallikrein-7 (Homo sapiens, UniProt P49862); experiment: Fluorescence Intensity-based biochemical primary high throughput dose response assay to identify activators of kallikrein-7 (K7) zymogen.
[13] = HepG2 cell cytotoxicity, dose response, cytotoxicity control, plate reader, cherry-pick, antagonist series (AID 743416); format: functional, cell-based
[14] = LGR2 antagonists, dose response, cell-based, HEK293, CRE-luciferase reporter, cherry pick, set 2 (AID 743343); format: functional;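 note: transfected cells were stimulated with diluted bursicon conditioned medium after compound addition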
[15] = MC4R antagonists, dose response, counter-screen for LGR2 antagonist project, cell-based, plate reader, cherry pick (AID 743444); format: functional;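 note: transfected HEK 293 cells stimulated with alpha-MSH peptide; potency of inhibitors of the alpha-MSH evoked signal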
[16] = HEK293 cell cytotoxicity, dose response, cytotoxicity control, plate reader, cherry-picked samples (AID 743446); format: functional, cell-based

T3 sequence (P49327 whole entry, the tested form may be a part): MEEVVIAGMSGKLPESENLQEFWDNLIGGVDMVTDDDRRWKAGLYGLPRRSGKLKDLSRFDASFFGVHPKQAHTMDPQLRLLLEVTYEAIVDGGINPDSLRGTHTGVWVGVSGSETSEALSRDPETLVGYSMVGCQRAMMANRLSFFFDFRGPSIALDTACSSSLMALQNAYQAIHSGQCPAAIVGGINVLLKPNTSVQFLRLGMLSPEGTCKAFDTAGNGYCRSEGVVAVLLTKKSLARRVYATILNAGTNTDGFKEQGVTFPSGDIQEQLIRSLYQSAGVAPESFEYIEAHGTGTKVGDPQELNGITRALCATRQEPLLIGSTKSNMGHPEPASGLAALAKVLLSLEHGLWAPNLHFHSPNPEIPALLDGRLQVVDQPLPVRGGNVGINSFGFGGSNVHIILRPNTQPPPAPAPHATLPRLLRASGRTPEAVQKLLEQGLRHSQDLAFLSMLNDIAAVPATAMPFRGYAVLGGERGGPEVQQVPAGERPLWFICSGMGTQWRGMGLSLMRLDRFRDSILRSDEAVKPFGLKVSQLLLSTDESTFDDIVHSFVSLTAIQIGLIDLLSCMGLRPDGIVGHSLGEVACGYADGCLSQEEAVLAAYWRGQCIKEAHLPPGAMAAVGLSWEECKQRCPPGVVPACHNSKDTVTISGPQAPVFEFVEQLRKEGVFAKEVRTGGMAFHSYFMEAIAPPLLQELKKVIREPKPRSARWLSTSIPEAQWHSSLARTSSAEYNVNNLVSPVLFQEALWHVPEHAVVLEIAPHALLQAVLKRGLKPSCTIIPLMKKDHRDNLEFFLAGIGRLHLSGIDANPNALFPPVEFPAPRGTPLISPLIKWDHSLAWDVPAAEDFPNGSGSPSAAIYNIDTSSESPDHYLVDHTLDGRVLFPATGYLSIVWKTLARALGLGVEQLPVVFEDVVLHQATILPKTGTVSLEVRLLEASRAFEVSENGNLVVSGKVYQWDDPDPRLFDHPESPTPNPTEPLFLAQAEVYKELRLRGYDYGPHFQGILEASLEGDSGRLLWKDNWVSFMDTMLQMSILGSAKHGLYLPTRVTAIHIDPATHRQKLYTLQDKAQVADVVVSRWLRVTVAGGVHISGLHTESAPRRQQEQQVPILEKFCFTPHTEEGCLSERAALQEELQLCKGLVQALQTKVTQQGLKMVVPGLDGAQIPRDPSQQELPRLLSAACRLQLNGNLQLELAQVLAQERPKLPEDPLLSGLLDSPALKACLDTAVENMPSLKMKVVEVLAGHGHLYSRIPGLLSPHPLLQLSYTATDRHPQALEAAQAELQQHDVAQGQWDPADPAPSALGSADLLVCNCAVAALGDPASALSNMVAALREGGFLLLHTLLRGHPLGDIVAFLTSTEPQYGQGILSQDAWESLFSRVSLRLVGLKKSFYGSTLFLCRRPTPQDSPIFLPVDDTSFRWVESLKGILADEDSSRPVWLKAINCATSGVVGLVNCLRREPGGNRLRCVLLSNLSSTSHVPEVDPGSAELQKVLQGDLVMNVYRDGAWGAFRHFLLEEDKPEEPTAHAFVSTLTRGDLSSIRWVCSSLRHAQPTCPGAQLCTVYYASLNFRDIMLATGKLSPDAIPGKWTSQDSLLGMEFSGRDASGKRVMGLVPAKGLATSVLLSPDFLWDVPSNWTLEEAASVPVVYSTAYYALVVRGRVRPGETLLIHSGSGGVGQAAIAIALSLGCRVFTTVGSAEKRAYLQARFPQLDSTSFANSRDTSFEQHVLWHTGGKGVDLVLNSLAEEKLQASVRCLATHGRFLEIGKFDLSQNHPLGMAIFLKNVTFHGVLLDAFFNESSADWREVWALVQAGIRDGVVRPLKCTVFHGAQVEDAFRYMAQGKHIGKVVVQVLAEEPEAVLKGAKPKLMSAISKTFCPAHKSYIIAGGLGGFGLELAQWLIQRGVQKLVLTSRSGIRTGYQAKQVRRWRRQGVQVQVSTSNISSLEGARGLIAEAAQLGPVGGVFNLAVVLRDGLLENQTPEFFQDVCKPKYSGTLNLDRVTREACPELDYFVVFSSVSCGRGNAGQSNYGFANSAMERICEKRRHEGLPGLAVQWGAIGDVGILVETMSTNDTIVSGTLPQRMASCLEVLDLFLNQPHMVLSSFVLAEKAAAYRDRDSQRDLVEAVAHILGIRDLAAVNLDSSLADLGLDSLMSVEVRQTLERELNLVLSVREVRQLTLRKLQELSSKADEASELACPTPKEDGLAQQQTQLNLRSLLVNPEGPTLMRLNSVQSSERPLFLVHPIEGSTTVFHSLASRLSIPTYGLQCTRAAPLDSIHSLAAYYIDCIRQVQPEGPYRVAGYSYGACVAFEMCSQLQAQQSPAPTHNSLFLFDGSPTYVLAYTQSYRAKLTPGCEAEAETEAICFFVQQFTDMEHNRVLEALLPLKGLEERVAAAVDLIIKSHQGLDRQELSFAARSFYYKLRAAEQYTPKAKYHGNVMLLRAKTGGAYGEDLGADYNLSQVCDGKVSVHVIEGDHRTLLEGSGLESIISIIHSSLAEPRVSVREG
Chain of Kallikrein-7 (P49862 whole entry): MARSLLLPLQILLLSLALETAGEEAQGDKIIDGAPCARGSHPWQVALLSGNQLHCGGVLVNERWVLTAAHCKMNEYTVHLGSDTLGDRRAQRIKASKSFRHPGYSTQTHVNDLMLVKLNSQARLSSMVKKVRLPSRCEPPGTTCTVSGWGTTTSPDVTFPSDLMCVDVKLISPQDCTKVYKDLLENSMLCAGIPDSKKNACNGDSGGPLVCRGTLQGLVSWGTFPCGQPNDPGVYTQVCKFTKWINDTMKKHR
Chain of Paired box protein Pax-8 (Q06710 whole entry): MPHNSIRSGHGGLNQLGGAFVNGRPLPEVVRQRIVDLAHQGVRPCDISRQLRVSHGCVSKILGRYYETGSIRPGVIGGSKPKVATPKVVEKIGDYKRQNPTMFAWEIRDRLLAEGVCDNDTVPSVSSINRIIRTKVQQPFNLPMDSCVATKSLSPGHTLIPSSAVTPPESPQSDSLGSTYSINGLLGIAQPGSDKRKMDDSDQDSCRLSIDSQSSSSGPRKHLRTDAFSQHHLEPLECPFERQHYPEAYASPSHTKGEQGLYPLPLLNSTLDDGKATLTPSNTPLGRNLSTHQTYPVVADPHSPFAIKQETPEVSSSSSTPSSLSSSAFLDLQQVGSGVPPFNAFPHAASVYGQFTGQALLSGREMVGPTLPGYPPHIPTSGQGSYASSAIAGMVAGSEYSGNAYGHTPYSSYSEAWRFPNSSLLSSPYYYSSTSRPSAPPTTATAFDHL

Cc1csc(-c2coc3cc(O)cc(C)c3c2=O)n1
IC50 (CHO-K1): > 66.2 µM (inactive) | IC50 [1]: > 49.8 µM (inactive) | IC50 [2]: 2.54 µM (active) | IC50 [3]: 10.4 µM (inactive) | IC50 (Orexin receptor type 2 [4]): > 88.8 µM (inactive) | IC50 (Orexin receptor type 2 [5]): > 50 µM (inactive)

O=c1cc(CN2CC(O)Cc3ccc4ccccc4c32)nc2sccn12 (stereo not given)
IC50 (CHO-K1): > 66.2 µM (inactive) | IC50 [1]: > 49.7 µM (inactive) | IC50 [2]: 4.12 µM (active) | IC50 [3]: 3.29 µM (active) | IC50 (Orexin receptor type 2 [4]): > 88.8 µM (inactive) | IC50 (Orexin receptor type 2 [5]): > 50 µM (inactive)

CCCCNC(=O)CCC(=O)NNc1nc2ccccc2c2nc(-c3ccccc3)nn12
IC50 (CHO-K1): > 66.2 µM (inactive) | IC50 [1]: > 49.8 µM (inactive) | IC50 [2]: 2.69 µM (active) | IC50 [3]: 7.27 µM (active) | IC50 (Orexin receptor type 2 [4]): > 88.8 µM (inactive) | IC50 (Orexin receptor type 2 [5]): > 50 µM (inactive)

CN(Cc1cccs1)C(=O)Cn1cnc2cc([N+](=O)[O-])ccc2c1=O
IC50 (Fatty acid synthase [6]): 7.81 µM (active) | IC50 (Fatty acid synthase [7]): 5.16 µM (active)

Cc1cc(O)cc2c(=O)c3ccccc3sc12
IC50 (CHO-K1): > 66.3 µM (inactive) | IC50 [1]: > 49.8 µM (inactive) | IC50 [2]: 3.64 µM (active) | IC50 [3]: 8.54 µM (active) | IC50 (Orexin receptor type 2 [4]): > 88.8 µM (inactive) | IC50 (Orexin receptor type 2 [5]): 0.009 µM (active)

CN(Cc1ccccc1)C(=O)c1[nH]cnc1C(=O)N[C@@H](Cc1ccccc1)C(=O)OC(C)(C)C
IC50 (CHO-K1): > 66.2 µM (inactive) | IC50 [1]: > 49.8 µM (inactive) | IC50 [2]: 0.515 µM (active) | IC50 [3]: 5.87 µM (active) | IC50 (Orexin receptor type 2 [4]): > 88.8 µM (inactive) | IC50 (Orexin receptor type 2 [5]): > 50 µM (inactive)

Cc1nc2c(C#N)cnn2c(O)c1Cc1ccccc1
Ki (fMet-Leu-Phe receptor): 27.4 µM (inactive)

O=C(/C=C/c1cccc([N+](=O)[O-])c1)NCCSCc1cccc(Cl)c1
CC50 [8]: 14.3 µM (active) | IC50 (Fatty acid synthase [6]): 11.7 µM (active) | IC50 (Fatty acid synthase [7]): 7.25 µM (active)

Cc1ccc2c(c1C)-c1c(ccc(C)c1C)C(=O)C2=O
AC50 [9]: 2.79 µM (active) | AC50 [10]: 3.16 µM (active) | IC50 (Fatty acid synthase [6]): 7.89 µM (active) | IC50 (Fatty acid synthase [7]): 5.23 µM (active) | AC50 (Paired box protein Pax-8): 3.67 µM (active) | AC50 [11]: 0.531 µM (active) | IC50 [12]: 8.67 µM (active)

CCOC(=O)c1cc2c(=O)n3ccccc3nc2n(CC2CCCO2)/c1=N/C(=O)/C=C/c1ccccc1 (stereo not given)
IC50 (Fatty acid synthase [6]): 2.71 µM (active) | IC50 (Fatty acid synthase [7]): 3.99 µM (active) | EC50 (Kallikrein-7): > 69.5 µM (inactive)

COc1ccc2nc(-c3ccc(F)cc3)sc2c1
AC50 [13]: > 52 µM (inactive) | AC50 [14]: 2.55 µM (active) | AC50 [15]: 2.35 µM (active) | AC50 [16]: > 52 µM (inactive)
